Values quoted from earlier work, collected in paper PMC9762682, “Tocotrienols: Exciting Biological and Pharmacological Properties of Tocotrienols and Naturally Occurring Compounds, Part II” (Annals of clinical case reports, 2022).
pIC50: −log10 of the molar value. Where two headings read alike, the source gives them in different places. Marks after values point to notes of the source that are not given here.

Experiments:
[1] = design: method as in ref 16 = [16]; PMID 27493840; doi:10.4172/2155-9880.1000434; 16. Qureshi AA , Khan DA , Silswal N , Saleem S , Qureshi N . Evaluation of pharmacokinetics and bioavailability of higher doses of δ-tocotrienol in healthy fed humans . J Clin Exp Cardiol . 2016; 7
[2] = design: method as in ref 14 = [14]; PMID 27493840; doi:10.4172/2155-9880.1000434; 14. Qureshi AA , Khan DA , Saleem S , Silswal N , Trias AM , Tan B , Pharmacokinetics and bioavailability of Annatto δ-tocotrienol in healthy fed subjects . J Clin Exp Cardiol . 2015; 6 : 11 . 10.417; conditions: for time of appearance in the plasma: after δ-tocotrienol administration to well-fed subjects; for Elimination of Half-life time (t1/2) / Elimination rate constant (ke) / Plasma Peak Concentration (Cmax) / Time to achieve plasma peak (Tmax): healthy fed subjects
[3] = system: α-Tocopherol Transfer Protein (α-TTP); design: method as in PMID 11271854, PMID 8632210
Pancreas cancer cells = system: Pancreas cancer cells; design: method as in PMID 29606130; value at effective dose: unit not given here
Prostate cancer cells = system: Prostate cancer cells; design: method as in PMID 29606130; value at effective dose: scale not given here;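 for pIC50: anti-proliferation of cancer cells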
Lung cancer cells = system: Lung cancer cells; design: method as in PMID 29606130; value at effective dose: unit not given here
T-cells (Jurkat) = system: T-cells (Jurkat); design: method as in PMID 29606130; value at effective dose: unit not given here
Melanoma cells = system: Melanoma cells; design: method as in PMID 29606130
Liver cancer cells = system: Liver cancer cells; design: method as in PMID 29606130; value at effective dose: unit not given here
TNF-α [4] = conditions: LPS-induced macrophages of PPAR-α knockout female mice
Breast cancer cells = system: Breast cancer cells; design: method as in PMID 29606130; value at effective dose: unit not given here;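 for pIC50: anti-proliferation of cancer cells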
Hela cells = system: Hela cells; design: method as in PMID 29606130; value at effective dose: unit not given here;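 for pIC50: anti-proliferation of cancer cells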
B-Lymphocyte cells = system: B-Lymphocyte cells; design: method as in PMID 29606130; value at effective dose: unit not given here;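 for pIC50: anti-proliferation of cancer cells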
TNF-α [5] = conditions: LPS-induced macrophages of wild type (C57BL/6) control group
[6] = 0 Hr., single dose 750 mg δ-tocotrienol
[7] = 0 Hr., single dose 1000 mg δ-tocotrienol
[8] = 1 hr., single dose 750 mg δ-tocotrienol
[9] = 1 hr., single dose 1000 mg δ-tocotrienol
[10] = 2 hr., single dose 750 mg δ-tocotrienol
[11] = 2 hr., single dose 1000 mg δ-tocotrienol
[12] = 4 hr., single dose 750 mg δ-tocotrienol
[13] = 4 hr., single dose 1000 mg δ-tocotrienol
[14] = 6 hr., single dose 750 mg δ-tocotrienol
[15] = 6 hr., single dose 1000 mg δ-tocotrienol
[16] = 8 hr., single dose 750 mg δ-tocotrienol
[17] = 8 hr., single dose 1000 mg δ-tocotrienol
[18] = plasma tocol after single dose 750 mg δ-tocotrienol
[19] = plasma tocol after single dose 1000 mg δ-tocotrienol
[20] = single dose 1000 mg δ-tocotrienol
[21] = plasma tocol after single 125 mg δ-tocotrienol dose
[22] = plasma tocol after single 250 mg δ-tocotrienol dose
[23] = plasma tocol after single 500 mg δ-tocotrienol dose

CC(C)=CCC/C(C)=C/CC/C(C)=C/CC[C@]1(C)CCc2c(C)c(O)c(C)c(C)c2O1 [α-Tocotrienol]
plasma tocol level [1, 6]: 241 ± 16 ng/mL
plasma tocol level [1, 7]: 292 ± 39 ng/mL
plasma tocol level [1, 8]: 268 ± 13 ng/mL
plasma tocol level [1, 9]: 653 ± 42 ng/mL
plasma tocol level [1, 10]: 278 ± 7 ng/mL
plasma tocol level [1, 11]: 807 ± 49 ng/mL
plasma tocol level [1, 12]: 293 ± 11 ng/mL
plasma tocol level [1, 13]: 1125 ± 35 ng/mL
plasma tocol level [1, 14]: 223 ± 5 ng/mL
plasma tocol level [1, 15]: 375 ± 49 ng/mL
plasma tocol level [1, 16]: 86 ± 16 ng/mL
plasma tocol level [1, 17]: 309 ± 17 ng/mL
Elimination of Half-life time (t1/2) [1, 18]: 2.21 ± 0.18^a h
Elimination rate constant (ke) [1, 18]: 0.315 ± 0.188^a h-1
Elimination of Half-life time (t1/2) [1, 19]: 2.15 ± 0.13^b h
Time to achieve plasma peak (Tmax) [1, 19]: 4.00^a h
Total tocols (sum of 0-8 h) ([1]; single dose 750 mg δ-tocotrienol): 1389 ng/mL
Total tocols (sum of 0-8 h) [1, 20]: 3561 ng/mL
time of appearance in the plasma [2]: > 2 h
Elimination of Half-life time (t1/2) [2, 21]: 2.62 ± 0.81^a h
Elimination rate constant (ke) [2, 21]: 1.234 ± 0.211^a h-1
Plasma Peak Concentration (Cmax) [2, 21]: 139.91 ± 11.03^a ng/mL
Time to achieve plasma peak (Tmax) [2, 21]: 2.73 ± 0.65 h
Elimination of Half-life time (t1/2) [2, 22]: 2.89 ± 0.84^a h
Elimination rate constant (ke) [2, 22]: 0.201 ± 0.050^b h-1
Plasma Peak Concentration (Cmax) [2, 22]: 204.91 ± 9.47^b ng/mL
Time to achieve plasma peak (Tmax) [2, 22]: 3.00 h
Elimination of Half-life time (t1/2) [2, 23]: 3.71 ± 0.29^b h
Elimination rate constant (ke) [2, 23]: 0.214 ± 0.009^b h-1
Plasma Peak Concentration (Cmax) [2, 23]: 290.09 ± 9.84^c ng/mL
Time to achieve plasma peak (Tmax) [2, 23]: 3.00 h
α-TTP mediated secretion from the liver into the circulatory system (affinity with α-TTP) [3]: 12%

Cc1c(C)c2c(c(C)c1O)CC[C@@](C)(CCC[C@H](C)CCC[C@H](C)CCCC(C)C)O2 [α-Tocopherol]
plasma tocol level [1, 6]: 1644 ± 59 ng/mL
plasma tocol level [1, 7]: 1817 ± 80 ng/mL
Tmax ([1]; 750 mg and 1000 mg doses of δ-tocotrienol): 6 h
plasma tocol level [1, 8]: 2080 ± 68 ng/mL
plasma tocol level [1, 9]: 2025 ± 66 ng/mL
plasma tocol level [1, 10]: 2002 ± 91 ng/mL
plasma tocol level [1, 11]: 2115 ± 92 ng/mL
plasma tocol level [1, 12]: 2231 ± 35 ng/mL
plasma tocol level [1, 13]: 2228 ± 22 ng/mL
plasma tocol level [1, 14]: 2754 ± 84 ng/mL
plasma tocol level [1, 15]: 2915 ± 35 ng/mL
plasma tocol level [1, 16]: 2406 ± 51 ng/mL
plasma tocol level [1, 17]: 2139 ± 61 ng/mL
Total tocols (sum of 0-8 h) [1, 20]: 13239 ng/mL
time of appearance in the plasma [2]: > 2 h
Elimination of Half-life time (t1/2) [2, 21]: 4.99 ± 069^a h
Elimination rate constant (ke) [2, 21]: 0.237 ± 0.217^a h-1
Plasma Peak Concentration (Cmax) [2, 21]: 1822.00 ± 48.24^a ng/mL
Time to achieve plasma peak (Tmax) [2, 21]: 6.00 h
Elimination of Half-life time (t1/2) [2, 22]: 4.91 ± 0.84^a h
Elimination rate constant (ke) [2, 22]: 0.084 ± 0.008^a,b h-1
Plasma Peak Concentration (Cmax) [2, 22]: 1931.00 ± 92.54^b ng/mL
Time to achieve plasma peak (Tmax) [2, 22]: 6.00 h
Elimination of Half-life time (t1/2) [2, 23]: 3.58 ± 0.67^a h
Elimination rate constant (ke) [2, 23]: 0.081 ± 0.006^b h-1
Plasma Peak Concentration (Cmax) [2, 23]: 2188 ± 147.61^c ng/mL
Time to achieve plasma peak (Tmax) [2, 23]: 5.46 ± 0.93 h
α-TTP mediated secretion from the liver into the circulatory system (affinity with α-TTP) [3]: 100%

O=c1c(O)c(-c2ccc(O)c(O)c2)oc2cc(O)cc(O)c12 [Quercetin]
pIC50 (Pancreas cancer cells): 4.40
percentage of control at IC50 dose (Pancreas cancer cells): 45%
effective dose (Pancreas cancer cells; 48 h): 40 µM
percentage of control at effective dose (Pancreas cancer cells; 48 h): 26%
value at effective dose (Pancreas cancer cells; 48 h): 11.7 ± 0.6
pIC50 (Prostate cancer cells): 5.00
percentage of control at IC50 dose (Prostate cancer cells): 48%
effective dose (Prostate cancer cells; 48 h): 20 µM
percentage of control at effective dose (Prostate cancer cells; 48 h): 17%
value at effective dose (Prostate cancer cells; 48 h): 7.3 ± 1.2
pIC50 (Lung cancer cells): 5.00
effective dose (Lung cancer cells): 20 µM
percentage of control at IC50 dose (Lung cancer cells): 45%
percentage of control at effective dose (Lung cancer cells): 36%
value at effective dose (Lung cancer cells): 11.7 ± 1.5
pIC50 (T-cells (Jurkat)): 5.00
effective dose (T-cells (Jurkat)): 40 µM
percentage of control at IC50 dose (T-cells (Jurkat)): 45%
percentage of control at effective dose (T-cells (Jurkat)): 81%
value at effective dose (T-cells (Jurkat)): 409.3 ± 6.4
pIC50 (Melanoma cells): 5.00
effective dose (Melanoma cells): 40 µM
percentage of control at IC50 dose (Melanoma cells): 54%
percentage of control at effective dose (Melanoma cells): 21%
pIC50 (Liver cancer cells): 4.70
percentage of control at IC50 dose (Liver cancer cells): 32%
effective dose (Liver cancer cells; 48 h): 40 µM
percentage of control at effective dose (Liver cancer cells; 48 h): 29%
value at effective dose (Liver cancer cells; 48 h): 24.0 ± 2.0
effect on secretion of TNF-α (TNF-α [4]): activation
pIC50 (Breast cancer cells): 5.00
effective dose (Breast cancer cells): 20 µM
percentage of control at IC50 dose (Breast cancer cells): 39%
percentage of control at effective dose (Breast cancer cells): 27%
value at effective dose (Breast cancer cells): 5.7 ± 0.6
pIC50 (Hela cells): 5.00
percentage of control at IC50 dose (Hela cells): 51%
effective dose (Hela cells; 48 h): 40 µM
percentage of control at effective dose (Hela cells; 48 h): 38%
value at effective dose (Hela cells; 48 h): 21.3 ± 1.5
pIC50 (B-Lymphocyte cells): 5.00
effective dose (B-Lymphocyte cells): 10 µM
percentage of control at IC50 dose (B-Lymphocyte cells): 29%
percentage of control at effective dose (B-Lymphocyte cells): 29%
value at effective dose (B-Lymphocyte cells): 8.0 ± 3.0
effect on secretion of TNF-α (TNF-α [5]): inhibition
